≈ marks a conversion by molar mass, not a printed value. Calls of active or inactive are those of the source. No cut-off for these calls is given here. Where a SMILES comes first, the peptide text is derived from it. [ ]: non-standard residue; d: D form. The star is where a group is joined. ξ: configuration not given here. Decanoyl = CCCCCCCCCC(=O)*; ξDab = NCCC(N)C(=O)O; ξDap = NCC(N)C(=O)O

Test system in one series: not listed separately
The series can be described thus: Critical micelle concentration of compound. The format is physicochemical.
Conditions: not given
`CCCCCCCCCC(=O)NCCC(NC(=O)CCCCCCCCC)C(=O)N[C@@H](CCCCN)C(=O)N[C@@H](CCCCN)C(=O)N[C@@H](CCCCN)C(N)=O` (stereo not given in full) (Decanoyl-[ξDab](Decanoyl)KKK-NH2) had a CMC of 3.16 mM.
On the same count and under the same terms, with `CCCCCCCCCC(=O)NCC(NC(=O)CCCCCCCCC)C(=O)N[C@@H](CCCCN)C(=O)N[C@@H](CCCCN)C(=O)N[C@@H](CCCCN)C(N)=O` (stereo not given in full) (Decanoyl-[ξDap](Decanoyl)KKK-NH2) the figure was 3.24 mM.

The test system of the next series is Lipid bilayer. The series can be described thus: Binding affinity to POPC large unilamellar vesicle at 0.2 mM by ITC method.
Conditions: not given
Background: Isothermal titration calorimetry measures the heat released or taken up as one component is titrated into another.
In the case of `CCCCCCCCCC(=O)NCCC(NC(=O)CCCCCCCCC)C(=O)N[C@@H](CCCCN)C(=O)N[C@@H](CCCCN)C(=O)N[C@@H](CCCCN)C(N)=O` (stereo not given in full) (Decanoyl-[ξDab](Decanoyl)KKK-NH2), the result was inactive.
With `CCCCCCCCCC(=O)NCC(NC(=O)CCCCCCCCC)C(=O)N[C@@H](CCCCN)C(=O)N[C@@H](CCCCN)C(=O)N[C@@H](CCCCN)C(N)=O` (stereo not given in full) (Decanoyl-[ξDap](Decanoyl)KKK-NH2), the result was inactive.

The test system of another series is Staphylococcus epidermidis. The experiment in a line: Antibacterial activity against Staphylococcus epidermidis PCM 2118 assessed as growth inhibition measured after 18 hrs by CLSI based method. The class given is functional. The note with it: PCM 2118, 18 h.
For orientation: MIC means the lowest concentration found to suppress growth. With `CCCCCCCCCC(=O)NCCC(NC(=O)CCCCCCCCC)C(=O)N[C@@H](CCCCN)C(=O)N[C@@H](CCCCN)C(=O)N[C@@H](CCCCN)C(N)=O` (stereo not given in full) (Decanoyl-[ξDab](Decanoyl)KKK-NH2), the MIC turned out to be 4 µg/mL (≈ 4.94 µM).
The same measure, in the same setting: with `CCCCCCCCCC(=O)NCC(NC(=O)CCCCCCCCC)C(=O)N[C@@H](CCCCN)C(=O)N[C@@H](CCCCN)C(=O)N[C@@H](CCCCN)C(N)=O` (stereo not given in full) (Decanoyl-[ξDap](Decanoyl)KKK-NH2) the figure was 4 µg/mL (≈ 5.02 µM).

Test system in the next series: not listed separately
The series can be described thus: Surfactant-like property of compound at CMC. The format is physicochemical.
Conditions: not given
On to `CCCCCCCCCC(=O)NCCC(NC(=O)CCCCCCCCC)C(=O)N[C@@H](CCCCN)C(=O)N[C@@H](CCCCN)C(=O)N[C@@H](CCCCN)C(N)=O` (stereo not given in full) (Decanoyl-[ξDab](Decanoyl)KKK-NH2), for which the gammaCMC worked out at 41.5 mN/meter.
Take `CCCCCCCCCC(=O)NCC(NC(=O)CCCCCCCCC)C(=O)N[C@@H](CCCCN)C(=O)N[C@@H](CCCCN)C(=O)N[C@@H](CCCCN)C(N)=O` (stereo not given in full) (Decanoyl-[ξDap](Decanoyl)KKK-NH2): the gammaCMC is 42.5 mN/meter.

Test system in another series: not listed separately
The series can be described thus: Binding affinity to DPPG lipid assessed as change in melting temperature at 10:1 molar ratio of lipid:lipopeptide by FTIR analysis.
Conditions: not given
Broadly, the ΔTm is the shift of the melting midpoint relative to a reference. With `CCCCCCCCCC(=O)NCCC(NC(=O)CCCCCCCCC)C(=O)N[C@@H](CCCCN)C(=O)N[C@@H](CCCCN)C(=O)N[C@@H](CCCCN)C(N)=O` (stereo not given in full) (Decanoyl-[ξDab](Decanoyl)KKK-NH2), the ΔTm was in the range of 2.5 to 3 °C.
Same read-out and setting: with `CCCCCCCCCC(=O)NCC(NC(=O)CCCCCCCCC)C(=O)N[C@@H](CCCCN)C(=O)N[C@@H](CCCCN)C(=O)N[C@@H](CCCCN)C(N)=O` (stereo not given in full) (Decanoyl-[ξDap](Decanoyl)KKK-NH2) the figure was 2.5 to 3 °C.

In a further series the test system is Pseudomonas aeruginosa. The experiment in a line: Antibacterial activity against Pseudomonas aeruginosa ATCC 9027 assessed as growth inhibition measured after 18 hrs by CLSI based method. The class given is functional. The note with it: ATCC 9027, 18 h.
Take `CCCCCCCCCC(=O)NCCC(NC(=O)CCCCCCCCC)C(=O)N[C@@H](CCCCN)C(=O)N[C@@H](CCCCN)C(=O)N[C@@H](CCCCN)C(N)=O` (stereo not given in full) (Decanoyl-[ξDab](Decanoyl)KKK-NH2): the MIC was 8 µg/mL (≈ 9.87 µM).
Still for that read-out and setting: with `CCCCCCCCCC(=O)NCC(NC(=O)CCCCCCCCC)C(=O)N[C@@H](CCCCN)C(=O)N[C@@H](CCCCN)C(=O)N[C@@H](CCCCN)C(N)=O` (stereo not given in full) (Decanoyl-[ξDap](Decanoyl)KKK-NH2) the figure was 4 µg/mL (≈ 5.02 µM).

The test system of a further series is Candida albicans. The experiment in a line: Antifungal activity against Candida albicans ATCC 10231 assessed as growth inhibition measured after 48 hrs by CLSI based method. The class given is functional. The note with it: ATCC 10231, 48 h.
Turning to `CCCCCCCCCC(=O)NCCC(NC(=O)CCCCCCCCC)C(=O)N[C@@H](CCCCN)C(=O)N[C@@H](CCCCN)C(=O)N[C@@H](CCCCN)C(N)=O` (stereo not given in full) (Decanoyl-[ξDab](Decanoyl)KKK-NH2), the MIC came to 16 µg/mL (≈ 19.7 µM).
Same read-out and setting: with `CCCCCCCCCC(=O)NCC(NC(=O)CCCCCCCCC)C(=O)N[C@@H](CCCCN)C(=O)N[C@@H](CCCCN)C(=O)N[C@@H](CCCCN)C(N)=O` (stereo not given in full) (Decanoyl-[ξDap](Decanoyl)KKK-NH2) the figure was 16 µg/mL (≈ 20.1 µM).

A further series deals with Staphylococcus aureus. The experiment in a line: Antibacterial activity against Staphylococcus aureus ATCC 25923 assessed as growth inhibition measured after 18 hrs by CLSI based method. The class given is functional. The note with it: ATCC 25923, 18 h.
Regarding `CCCCCCCCCC(=O)NCCC(NC(=O)CCCCCCCCC)C(=O)N[C@@H](CCCCN)C(=O)N[C@@H](CCCCN)C(=O)N[C@@H](CCCCN)C(N)=O` (stereo not given in full) (Decanoyl-[ξDab](Decanoyl)KKK-NH2), the MIC was 8 µg/mL (≈ 9.87 µM).
Consider `CCCCCCCCCC(=O)NCC(NC(=O)CCCCCCCCC)C(=O)N[C@@H](CCCCN)C(=O)N[C@@H](CCCCN)C(=O)N[C@@H](CCCCN)C(N)=O` (stereo not given in full) (Decanoyl-[ξDap](Decanoyl)KKK-NH2), for which the MIC is 2 µg/mL (≈ 2.51 µM).

A further series concerns Escherichia coli. The series can be described thus: Antibacterial activity against Escherichia coli ATCC 25922 assessed as growth inhibition measured after 18 hrs by CLSI based method. The class given is functional. The note with it: ATCC 25922, 18 h.
As to `CCCCCCCCCC(=O)NCCC(NC(=O)CCCCCCCCC)C(=O)N[C@@H](CCCCN)C(=O)N[C@@H](CCCCN)C(=O)N[C@@H](CCCCN)C(N)=O` (stereo not given in full) (Decanoyl-[ξDab](Decanoyl)KKK-NH2), the MIC was 16 µg/mL (≈ 19.7 µM).
As for `CCCCCCCCCC(=O)NCC(NC(=O)CCCCCCCCC)C(=O)N[C@@H](CCCCN)C(=O)N[C@@H](CCCCN)C(=O)N[C@@H](CCCCN)C(N)=O` (stereo not given in full) (Decanoyl-[ξDap](Decanoyl)KKK-NH2), the MIC was determined as 8 µg/mL (≈ 10 µM).

In another series the test system is HaCaT. The experiment in a line: Cytotoxicity against human HaCaT cells assessed as growth inhibition measured after 24 hrs by MTT assay. The class given is cell-based.
Conditions: not given
As usually defined, the IC50 is the midpoint of a concentration-inhibition curve. For the compound `CCCCCCCCCC(=O)NCCC(NC(=O)CCCCCCCCC)C(=O)N[C@@H](CCCCN)C(=O)N[C@@H](CCCCN)C(=O)N[C@@H](CCCCN)C(N)=O` (stereo not given in full) (Decanoyl-[ξDab](Decanoyl)KKK-NH2), the IC50 came out at 1.16 µg/mL (≈ 1.43 µM).
The same measure, in the same setting: as for `CCCCCCCCCC(=O)NCC(NC(=O)CCCCCCCCC)C(=O)N[C@@H](CCCCN)C(=O)N[C@@H](CCCCN)C(=O)N[C@@H](CCCCN)C(N)=O` (stereo not given in full) (Decanoyl-[ξDap](Decanoyl)KKK-NH2), the figure is 75 µg/mL (≈ 94.2 µM).

The values are drawn from ChEMBL document CHEMBL4406885, “Effect of self-assembly on antimicrobial activity of double-chain short cationic lipopeptides” (Bioorg Med Chem, 2019).
